In general, IC90 refers to the concentration at which the effect reaches the 90% level.

Molecules are shown by their SMILES. Where a name gives a salt, the structure may show the parent alone.

The first assay deals with Acinetobacter baumannii ATCC17961. Description: Antimicrobial susceptibility testing: 90% growth inhibitory concentration (IC90) determination in Iso-Sensitest broth, OD600 growth. Type of assay: cell-based. To be noted: Acinetobacter baumannii, ATCC17961, 16 h, read-out: A. baumannii ATCC 17961 IC90 (uM), strain ATCC 17961, OD600 growth over 16 h. The method in brief: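 Twofold compound dilutions (e.g. 50 to 0.097 μM final) in Iso-Sensitest broth with ~5×10^(5) CFU/ml, 35±2 °C. OD600 read every 20 min over 16 h; IC90 from growth inhibition during logarithmic phase.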
Take `CN(C)CCNC(=O)CNC(=O)c1ccc(Nc2nccn3c(-c4c[nH]nc4C(F)(F)F)cnc23)cc1Cl` [Example 165, 2-chloro-N-[2-[2-(dimethylamino)ethylamino]-2-oxoethyl]-4-[[3-[3-(trifluoromethyl)-1H-pyrazol-4-yl]imidazo[1,2-a]pyrazin-8-yl]amino]benzamide formate]: the IC90 is 2.52 µM.
The same measure, in the same setting: in the case of `O=C(c1ccc(Nc2nccn3c(-c4c[nH]nc4C(F)(F)F)cnc23)cc1Cl)N1CCN(C(=O)[C@H]2CCNC[C@@H]2O)CC1` [Example 453, [2-chloro-4-[[3-[3-(trifluoromethyl)-1H-pyrazol-4-yl]imidazo[1,2-a]pyrazin-8-yl]amino]phenyl]-[4-[(3R,4S)-3-hydroxypiperidine-4-carbonyl]piperazin-1-yl]methanone formate] it was 0.586 µM; in that of `N#CCCn1cc(-c2cnc3c(Nc4ccc(C(=O)N5CCN(C(=O)N[C@H]6CCNC6)CC5)c(Cl)c4)nccn23)c(C(F)(F)F)n1` [Example 259, 4-[2-chloro-4-[[3-[1-(2-cyanoethyl)-3-(trifluoromethyl)pyrazol-4-yl]imidazo[1,2-a]pyrazin-8-yl]amino]benzoyl]-N-[(3S)-pyrrolidin-3-yl]piperazine-1-carboxamide formate], 0.463 µM.
The same measure, in the same setting: in the case of `Cc1cc(Nc2nccn3c(-c4c[nH]nc4C(F)(F)F)cnc23)ccc1C(=O)N1CCN(C(=O)CCN)CC1` [Example 418, 3-amino-1-[4-[2-methyl-4-[[3-[3-(trifluoromethyl)-1H-pyrazol-4-yl]imidazo[1,2-a]pyrazin-8-yl]amino]benzoyl]piperazin-1-yl]propan-1-one formate] it was 0.583 µM; in that of `CCc1cc(Nc2nccn3c(-c4c[nH]nc4C(F)(F)F)cnc23)ccc1C(=O)NCCNC(=O)CN` [Example 691, N-(2-(2-aminoacetamido)ethyl)-2-ethyl-4-((3-(3-(trifluoromethyl)-1H-pyrazol-4-yl)imidazo [1,2-a]pyrazin-8-yl)amino)benzamide formate], 0.352 µM; in that of `Cc1cc(Nc2nccn3c(-c4cn(CC#N)nc4C(F)(F)F)cnc23)ccc1C(=O)N1CCN(C(=O)[C@H]2C[C@H](O)CN2)CC1` [Example 426, formic acid; 2-[4-[8-[4-[4-[(2R,4S)-4-hydroxypyrrolidine-2-carbonyl]piperazine-1-carbonyl]-3-methylanilino]imidazo[1,2-a]pyrazin-3-yl]-3-(trifluoromethyl)pyrazol-1-yl]acetonitrile], 0.948 µM.

The assay is the same for the next values; noted with them: Acinetobacter baumannii, ATCC17961, 16 h, strain ATCC 17961, OD600 growth over 16 h, read-out: A. baumannii ATCC 17961 IC90.
For `C[C@H]1CNCCN1C(=O)c1ccc(Nc2nccn3c(-c4c[nH]nc4C(F)(F)F)cnc23)cc1Cl` [Example 325, [2-chloro-4-[[3-[3-(trifluoromethyl)-1H-pyrazol-4-yl]imidazo[1,2-a]pyrazin-8-yl]amino]phenyl]-[(2S)-2-methylpiperazin-1-yl]methanone], the 90% effect concentration (IC90) is 2.02 µM.
Take `Cc1cc(Nc2nccn3c(-c4cn(CC(F)F)nc4C(F)(F)F)cnc23)cc(F)c1C(=O)N[C@H](C)CN` [Example 704, (R)-N-(1-aminopropan-2-yl)-4-((3-(1-(2,2-difluoroethyl)-3-(trifluoromethyl)-1H-pyrazol-4-yl)imidazo[1,2-a]pyrazin-8-yl)amino)-2-fluoro-6-methylbenzamide]: the IC90 was determined as 0.386 µM.
Still for that read-out and setting: the result for `CCc1cc(Nc2nccn3c(-c4cn(CC(F)F)nc4C(F)(F)F)cnc23)ccc1C(=O)NCC(=O)NCC1CCNC1` (stereo not drawn) [Example 549, 4-[[3-[1-(2,2-difluoroethyl)-3-(trifluoromethyl)pyrazol-4-yl]imidazo[1,2-a]pyrazin-8-yl]amino]-2-ethyl-N-[2-oxo-2-(pyrrolidin-3-ylmethylamino)ethyl] benzamide formate] reads 0.235 µM; that for `CCc1cc(Nc2nccn3c(-c4c[nH]nc4C(F)F)cnc23)ccc1C(=O)NCCOCCN` [Example 430, N-[2-(2-aminoethoxy)ethyl]-4-[[3-[3-(difluoromethyl)-1H-pyrazol-4-yl]imidazo[1,2-a]pyrazin-8-yl]amino]-2-ethylbenzamide], 2.14 µM; that for `C#CCn1cc(-c2cnc3c(Nc4ccc(C(=O)NCCOCCN)c(C)c4)nccn23)c(C(F)(F)F)n1` [Example 16, N-[2-(2-aminoethoxy)ethyl]-2-methyl-4-[[3-[1-prop-2-ynyl-3-(trifluoromethyl)pyrazol-4-yl]imidazo[1,2-a]pyrazin-8-yl]amino]benzamide], 0.069 µM.
The same measure, in the same setting: in the case of `O=C(NC1CCN(C(=O)c2ccc(Nc3nccn4c(-c5c[nH]nc5C(F)(F)F)cnc34)cc2Cl)CC1)[C@@H]1C[C@@H](O)CN1` [Example 154, (2S,4R)-N-[1-[2-chloro-4-[[3-[3-(trifluoromethyl)-1H-pyrazol-4-yl]imidazo[1,2-a]pyrazin-8-yl]amino]benzoyl]piperidin-4-yl]-4-hydroxypyrrolidine-2-carboxamide] it was 0.391 µM; in that of `NCCOCCNC(=O)c1ccc(Nc2nccn3c(-c4c[nH]nc4C(F)(F)F)cnc23)cc1Cl` [Example 361, N-[2-(2-aminoethoxy)ethyl]-2-chloro-4-[[3-[3-(trifluoromethyl)-1H-pyrazol-4-yl]imidazo[1,2-a]pyrazin-8-yl]amino]benzamide hydrochloride], 0.267 µM.
Same read-out and setting: the result for `N#CCn1cc(-c2cnc3c(Nc4ccc(C(=O)NCC(=O)N5CCC(N)CC5)c(Cl)c4)nccn23)c(C(F)(F)F)n1` [Example 502, N-[2-(4-amino-1-piperidyl)-2-oxo-ethyl]-2-chloro-4-[[3-[1-(cyanomethyl)-3-(trifluoromethyl)pyrazol-4-yl]imidazo[1,2-a]pyrazin-8-yl]amino]benzamide formate] reads 0.233 µM.
As to `CCc1cc(Nc2nccn3c(-c4cn(CC#N)nc4C(F)(F)F)cnc23)ccc1C(=O)NCCNC(=O)[C@H]1C[C@@H](N)C1` [Example 498, cis-N-(2-((1s,3s)-3-aminocyclobutane-1-carboxamido)ethyl)-4-((3-(1-(cyanomethyl)-3-(trifluoromethyl)-1H-pyrazol-4-yl)imidazo[1,2-a]pyrazin-8-yl)amino)-2-ethylbenzamide formate], the IC90 worked out at 0.193 µM.
Turning to `NCCCCCCNC(=O)c1ccc(Nc2nccn3c(-c4cn(CC(F)F)nc4C(F)(F)F)cnc23)cc1Cl` [Example 826, N-(6-aminohexyl)-2-chloro-4-((3-(1-(2,2-difluoroethyl)-3-(trifluoromethyl)-1H-pyrazol-4-yl)imidazo[1,2-α]pyrazin-8-yl)amino)benzamide hydrochloride], the IC90 came to 0.11 µM.
Same read-out and setting: the result for `CCc1cc(Nc2nccn3c(-c4cn(CCF)nc4C(F)(F)F)cnc23)ccc1C(=O)NCCOCCN1CCCC1` [Example 617, 2-ethyl-4-((3-(1-(2-fluoroethyl)-3-(trifluoromethyl)-1H-pyrazol-4-yl)imidazo[1,2-a]pyrazin-8-yl)amino)-N-(2-(2-(pyrrolidin-1-yl)ethoxy)ethyl) benzamide formate] reads 0.125 µM.

The assay is the same for the next values; noted with them: strain ATCC 17961, OD600 growth over 16 h, read-out: A. baumannii ATCC 17961 IC90.
`C#CCNCCCNC(=O)c1c(C)cc(Nc2nccn3c(-c4cn(CCF)nc4C(F)(F)F)cnc23)cc1F` [Example 74, 2-fluoro-4-[[3-[1-(2-fluoroethyl)-3-(trifluoromethyl)pyrazol-4-yl]imidazo[1,2-a]pyrazin-8-yl]amino]-6-methyl-N-[3-(prop-2-ynylamino)propyl] benzamide]: the IC90 amounted to 0.781 µM.

Values taken from patent US20230203043A1, “NOVEL IMIDAZOPYRAZINE DERIVATIVES” (Hoffmann-La Roche Inc., priority 2020, published 2023).
